Like-named read-outs stand apart in the source and are kept apart here.
Key:
human iPS cells [1] = assay: Differentiation of human iPS cells into endoderm cells on mmcM15 cells, immunofluorescent staining for Sox17 and Oct3/4; assay type: cell-based; conditions: staining Day 10, vs control culture medium
Procedure: (§1) In performing a whole mount immunohistochemistry test, ES cells or iPS cells were placed on Nunc Theranox Colerslips 24-well type (Nunc). Cells were fixed at room temperature for 20 minutes in 4% paraformaldehyde, and washed sufficiently with 0.1% Tween-containing phosphate buffered saline (PBS-T). In PBS containing 1% TritonX-100, the cells were infiltrated at room for 10 minutes, and incubated for 1 hour in a blocking solution (×5 Blocking One, Nacalai Tesque), then, primary antibodies in the blocking solution were added to the sample, and incubated at 4° C. overnight. The sample was washed sufficiently with PBS-T, and mounted with PermaFluor Aqueous Mounting culture medium (IMMUNON). A confocal image was obtained using Leica Spectral Confocal Scanning System, TCS-SP2 (Leica).
(§2) Antibodies used for detection are as described below. Rabbitanti-α-fetoprotein (AFP, Dako), goat anti-albumin (Sigma), rabbit anti-Pdx1 (Chemicon), mouse anti-Oct3/4 (Santa Cruz), goat anti-Sox17 (R&D). As secondary antibodies, Alexa568-labeled goat anti-rabbit antibody and donkey anti-goat antibody, and Alexa488-labeled goat anti-mouse antibody and goat anti-rabbit antibody, donkey anti-goat antibody (Molecular Probes) were used. Cells were counter-stained with DAPI (Roche). The numbers of Sox17 and Oct3/4 positive cells were quantified using ImageXpress (Molecular Devices Corporation).
Differentiation of human iPS cells into endoderm cells was induced using endoderm differentiation culture media deprived of one amino acid for each culture medium. For induction of differentiation into endoderm cells, an endoderm differentiation inducing method using mmcM15 cells was used (see, non-patent document 6).
As the culture medium, the following media were used depending on the culturing period. From initiation of culturing (Day 0) until Day 6 or Day 8 of culturing, PRMI 1640 culture medium (Invitrogen) containing 50 units/ml penicillin and 50 μg/ml streptomycin (GIBCO), 2 mM L-glutamine (GIBCO), 100 μM β-mercaptoethanol (Sigma), non-essential amino acid (GIBCO), 100 ng/ml activin (R&D Systems) and B27 culture medium additive (Invitrogen) added was used as an endoderm differentiation culture medium.
From Day 6 or Day 8 until Day 10, amino acid-deprived culture media obtained by removing one amino acid from PRMI 1640 culture medium containing 50 units/ml penicillin and 50 μg/ml streptomycin, 2 mM L-glutamine, 100 μM β-mercaptoethanol, 100 ng/ml activin and B27 culture medium additive added, or a culture medium not deprived of an amino acid (control culture medium) was used as an endoderm differentiation culture medium.
Specifically, mmcM15 cells were seeded as supporting cells on a gelatin-coated 96-well plate. Human iPS cells were treated with Y27632 (10 μM) from 24 hours before seeding, and peeled using 0.25% trypsin. The peeled human iPS cells were seeded on mmcM15 cells at a cell concentration of 1×10^4 cells/well. The seeded human iPS cells were cultured for 24 hours under 37° C. and 5% CO2 in ES culture medium (ReproStem, ReproCell) containing 10 μM Y27632 and 5 ng/ml bFGF added. After 24 hours, cells were washed once with PBS, then, the culture medium was changed to an endoderm differentiation culture medium (Day 0). Until Day 6 or Day 8 of culturing, the endoderm differentiation culture medium was changed every other day, and human iPS cells were cultured under 37° C. and 5% CO2. On Day 6 or Day 8, the culture medium was changed to an amino acid-deprived culture medium or a control culture medium. Human iPS cells were cultured until Day 10 of culturing using an amino acid-deprived culture medium or a control culture medium. On Day 10, human iPS cells were subjected to immunofluorescent staining, and the proportions of positive cells for an endoderm differentiation marker (Sox17) and an undifferentiation marker (Oct3/4) were quantitatively analyzed. The proportion of the positive cells based on those stained with DAPI was calculated.

human iPS cells [2] = assay: Addition of methionine metabolites to methionine-deprived or methyl donor-deprived culture medium, Oct3/4 and Sox17 positive cells counted; assay type: cell-based; conditions: for effect of reducing Oct3/4 positive cells owing to methionine deprivation: added to methionine-deprived culture medium (ΔMet) Day 8 to Day 10; for effect of reducing Oct3/4 positive cells: added to methyl donor-deprived culture medium (ΔMD) Day 8 to Day 10
Procedure: For investigating an influence of a methionine and methyl donor-deprived culture medium on differentiation into endoderm cells, a culture medium was deprived of methionine and methyl donors on Day 8 of differentiation, and cells were cultured until Day 10 and the numbers of Oct3/4 and Sox17 positive cells were evaluated by antibody staining. Specifically, mmcM15 cells were seeded as supporting cells on a gelatin-coated 96-well plate. Human iPS cells were treated with Y27632 (10 μM) from 24 hours before seeding, and peeled using 0.25% trypsin. The peeled human iPS cells were seeded on mmcM15 cells at a cell concentration of 1×10^4 cells/well. The seeded human iPS cells were cultured for 24 hours under 37° C. and 5% CO2 in ES culture medium containing Y27632 and bFGF added. After 24 hours, the culture medium was changed to an endoderm differentiation culture medium (Day 0). The endoderm differentiation culture medium was changed every other day and human iPS cells cultured under 37° C. and 5% CO2 from the day of initiation of culture (Day 0) to Day 8. On Day 8, the culture medium was changed to various culture media. One obtained by removing […]⋅folate⋅vitamin B12⋅betaine⋅choline from the culture medium was used as a methyl donor-deprived culture medium. Human iPS cells were cultured until Day 10 using various culture media, and Oct3/4 and Sox17 positive cells were counted.
It is known that methionine is metabolized to give cysteine (Cys). […] In the figure, δMD denotes a culture medium not containing methionine, folic acid, vitamin B12, betaine and choline as a methyl donor.

human iPS cells [3] = tested on: human iPS cells
Procedure: as §1, §2
The methionine addition concentration between Day 8 and Day 10 was […], 0.1, 1.0, 5.0, 10.0, 20.0, 50.0, 100, 200 and 500 μM.
On Day 10, the culture medium was changed to a liver differentiation culture medium ([…] containing 10% KSR, 2000 mg/l D-glucose, 50 units/ml penicillin and 50 μg/ml streptomycin, 2 mM L-glutamine, 100 μM β-mercaptoethanol, […] human recombinant HGF and 1 μM dexamethasone (hereinafter, referred to as “2000KSR-DMEM culture medium”)), and cultured under 37° C. and 5% CO2 until Day 20. During Day 10 to Day 20, the culture medium was changed every other day. On Day 20, human iPs cells were subjected to immunofluorescent staining, and the proportions of Oct3/4 positive cells and AFP positive cells were compared for every methionine concentration.
On Day 10, the culture medium was changed to a liver differentiation culture medium (2000KSR-DMEM culture medium), and human iPS cells were cultured under 37° C. and 5% CO2 until Day 30. During Day 10 to Day 30, the culture medium was changed every other day.

human iPS cells [4] = tested on: human iPS cells; remark: listed apart in the source
Procedure: For investigating an influence of a proline-added differentiation culture medium on differentiation into hepatocytes, differentiation of human iPS cells into liver precursor cells was induced using a liver differentiation culture medium containing proline added at a concentration of 1 mM.
On a gelatin-coated 96-well plate, mmcM15 cells were seeded as supporting cells. Human iPS cells were treated with Y27632 (10 μM) from 24 hours before seeding, and peeled using 0.25% trypsin. The peeled human iPS cells were seeded on mmcM15 cells at a cell concentration of 1×10^4 cells/well. The seeded human iPS cells were cultured for 24 hours under 37° C. and 5% CO2 in ES culture medium containing Y27632 and bFGF added. After 24 hours, the culture medium was changed to an endoderm differentiation culture medium (Day 0).
In the same manner as in Example 3, the endoderm differentiation culture medium was changed every other day and human iPS cells were cultured under 37° C. and 5% CO2, from the day of initiation of culturing (Day 0) to Day 8.
On Day 10, the culture medium was changed to a liver differentiation culture medium (2000KSR-DMEM culture medium, control culture medium) or Pro-containing 2000KSR-DMEM culture medium obtained by further adding 1 mM proline to a control culture medium, and human iPS cells were cultured until Day 19 under 37° C. and 5% CO2. During Day 10 to Day 19, the culture medium was changed every other day. On Day 19, human iPS cells were subjected to immunofluorescent staining with an anti-Oct3/4 antibody and an anti-AFP antibody.

[5] = amino acid-deprived endoderm differentiation culture medium Day 6 to Day 10
[6] = amino acid-deprived endoderm differentiation culture medium Day 8 to Day 10
[7] = methionine 0 μM to 0.1 μM Day 8 to Day 10, Day 20, FIG. 7C
[8] = methionine 1 μM to 20 μM Day 8 to Day 10, Day 20, FIG. 7C
[9] = methionine 50 μM or more Day 8 to Day 10, Day 20, FIG. 7C
[10] = Day 19, methionine deprivation Day 8 to Day 10 and/or 1 mM proline Day 10 to Day 19, vs control group

Structure (SMILES) | Oct3/4 positive cell ratio (human iPS cells [1]; [5]) | Oct3/4 positive cell ratio (human iPS cells [1]; [6]) | Sox17 positive cell ratio (human iPS cells [1]; [6]) | further results
N=C(N)NCCC[C@H](N)C(=O)O [Arg, arginine] | decreased | remarkably decreased | increased | 
N[C@@H](CS)C(=O)O [Cys, cysteine] | decreased | remarkably decreased | increased | effect of reducing Oct3/4 positive cells owing to methionine deprivation (human iPS cells [2]): has no influence
NC(=O)CC[C@H](N)C(=O)O [Gln] |  |  | increased | 
NCC(=O)O [Gly] |  |  | increased | 
N[C@@H](CCS)C(=O)O [Hcy, homocysteine] |  |  |  | effect of reducing Oct3/4 positive cells owing to methionine deprivation (human iPS cells [2]): the effect of reducing Oct3/4 positive cells is inhibited; effect of reducing Oct3/4 positive cells (human iPS cells [2]): had not influence
N[C@@H](Cc1c[nH]cn1)C(=O)O [His, histidine] | decreased | remarkably decreased |  | 
CC[C@H](C)[C@H](N)C(=O)O [Ile, isoleucine] | decreased | remarkably decreased |  | 
CC(C)C[C@H](N)C(=O)O [Leu, leucine] | decreased | remarkably decreased | increased | 
NCCCC[C@H](N)C(=O)O [Lys, lysine] | decreased | remarkably decreased |  | 
CSCC[C@H](N)C(=O)O [Met, methionine] | decreased | remarkably decreased | increased | AFP positive cells (human iPS cells [3]; [7]): present uniformly; amount of remaining Oct3/4 positive cells (human iPS cells [3]; [7]): small; number of AFP positive cells (human iPS cells [3]; [8]): decrease in the number of AFP positive cells is not recognized; number of Oct3/4 positive cells (human iPS cells [3]; [8]): increases slightly; number of Oct3/4 positive cells (human iPS cells [3]; [9]): remarkable increase; number of Sox17 positive cells (human iPS cells [3]; [9]): remarkable decrease; proportion of Oct3/4 positive cells on Day 20 (human iPS cells [3]; methionine added Day 8 to Day 10 at various concentrations up to 500 μM, then liver differentiation culture medium): increased depending on the methionine concentration; proportion of AFP positive cells (human iPS cells [3]; methionine concentrations of 50 μM or more Day 8 to Day 10, Day 20, FIG. 7B): decreased; effect of reducing Oct3/4 positive cells owing to methionine deprivation (human iPS cells [2]): the effect of reducing Oct3/4 positive cells is inhibited; effect of reducing Oct3/4 positive cells (human iPS cells [2]): inhibited the effect of reducing Oct3/4 positive cells
N[C@@H](Cc1ccccc1)C(=O)O [Phe, phenylalanine] | decreased | remarkably decreased |  | 
Nc1ncnc2c1ncn2[C@@H]1O[C@H](CSCC[C@H](N)C(=O)O)[C@@H](O)[C@H]1O [SAH, S-adenosylhomocystein] |  |  |  | effect of reducing Oct3/4 positive cells owing to methionine deprivation (human iPS cells [2]): the effect of reducing Oct3/4 positive cells is inhibited; effect of reducing Oct3/4 positive cells (human iPS cells [2]): had not influence
C[S+](CC[C@H](N)C(=O)O)C[C@H]1O[C@@H](n2cnc3c(N)ncnc32)[C@H](O)[C@@H]1O (stereo partly shown) [SAM, S-adenosylmethionine] |  |  |  | effect of reducing Oct3/4 positive cells owing to methionine deprivation (human iPS cells [2]): the effect of reducing Oct3/4 positive cells is inhibited; effect of reducing Oct3/4 positive cells (human iPS cells [2]): inhibited the effect of reducing Oct3/4 positive cells
N[C@@H](CO)C(=O)O [Ser] |  |  | increased | 
C[C@@H](O)[C@H](N)C(=O)O [Thr, threonine] | decreased | remarkably decreased |  | 
N[C@@H](Cc1c[nH]c2ccccc12)C(=O)O [Trp, tryptophan] | decreased | remarkably decreased |  | 
N[C@@H](Cc1ccc(O)cc1)C(=O)O [Tyr, tyrosine] | decreased | remarkably decreased | without change | 
CC(C)[C@H](N)C(=O)O [Val, valine] | decreased | remarkably decreased |  | 
O=C(O)[C@@H]1CCCN1 [proline] |  |  |  | AFP positive cells (human iPS cells [4]; [10]): larger; Oct3/4 positive cells (human iPS cells [4]; [10]): decreased; AFP and Oct3/4 positive cells (human iPS cells [4]; proline 10 mM): the same result as in the case of 1 mM addition

From patent publication US10000739B2, “Method and culture medium for improving pluripotent stem cell differentiation inducing efficiency” (NATIONAL UNIVERSITY CORPORATION KUMAMOTO UNIVERSITY, priority 2010, dated 2018)
